# From ChEMBL document CHEMBL1743201, “Casarett and Doull's Toxicology The Basic Science of Poisons, 7th edition” (2008)
# What was measured:
# Format in all cases: ADME
# Prostaglandin E synthase = Prostaglandin E synthase (Homo sapiens, UniProt O14684); assay: Substrates for human microsomal glutathione transferase PTGEs
# [1] = target: Glutathione S-transferase Mu 3 (Homo sapiens, UniProt P21266); assay: Substrates for human cytosolic glutathione transferase GSTM3
# [2] = target: Hematopoietic prostaglandin D synthase (Homo sapiens, UniProt O60760); assay: Substrates for human cytosolic glutathione transferase PGDS
# Sequence of Hematopoietic prostaglandin D synthase (O60760 whole entry): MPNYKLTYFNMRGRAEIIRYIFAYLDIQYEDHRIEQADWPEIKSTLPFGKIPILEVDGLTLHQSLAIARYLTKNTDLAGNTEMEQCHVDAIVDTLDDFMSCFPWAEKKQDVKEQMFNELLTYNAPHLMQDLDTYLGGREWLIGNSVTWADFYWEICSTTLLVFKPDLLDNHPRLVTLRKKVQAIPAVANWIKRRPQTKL
# [3] = target: T1, Glutathione S-transferase Mu 2 (Homo sapiens, UniProt P28161); assay: Substrates for human cytosolic glutathione transferase GSTM2
# T1 sequence (P28161 whole entry): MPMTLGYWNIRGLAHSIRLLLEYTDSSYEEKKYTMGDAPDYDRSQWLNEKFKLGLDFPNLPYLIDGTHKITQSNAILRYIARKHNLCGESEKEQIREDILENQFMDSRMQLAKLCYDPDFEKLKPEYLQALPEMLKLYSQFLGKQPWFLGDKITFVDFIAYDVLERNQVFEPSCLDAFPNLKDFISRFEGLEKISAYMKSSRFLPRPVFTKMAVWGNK
# Leukotriene C4 synthase = Leukotriene C4 synthase (Homo sapiens, UniProt Q16873); assay: Substrates for human microsomal glutathione transferase LTC4S
# Sequence of Leukotriene C4 synthase (Q16873 whole entry): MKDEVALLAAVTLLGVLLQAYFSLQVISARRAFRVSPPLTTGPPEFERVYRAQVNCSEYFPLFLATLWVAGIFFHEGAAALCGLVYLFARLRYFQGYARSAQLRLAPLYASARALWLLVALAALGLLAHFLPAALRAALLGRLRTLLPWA
# [4] = target: Glutathione S-transferase 3, mitochondrial (Homo sapiens, UniProt O14880); assay: Substrates for human microsomal glutathione transferase MGST3
# Sequence of Glutathione S-transferase 3, mitochondrial (O14880 whole entry): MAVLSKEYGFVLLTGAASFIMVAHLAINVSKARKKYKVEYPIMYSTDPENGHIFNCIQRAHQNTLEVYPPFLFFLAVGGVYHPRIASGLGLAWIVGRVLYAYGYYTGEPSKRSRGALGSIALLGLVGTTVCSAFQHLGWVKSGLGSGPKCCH
# [5] = target: Microsomal glutathione S-transferase 2 (Homo sapiens, UniProt Q99735); assay: Substrates for human microsomal glutathione transferase MGST2
# Sequence of Microsomal glutathione S-transferase 2 (Q99735 whole entry): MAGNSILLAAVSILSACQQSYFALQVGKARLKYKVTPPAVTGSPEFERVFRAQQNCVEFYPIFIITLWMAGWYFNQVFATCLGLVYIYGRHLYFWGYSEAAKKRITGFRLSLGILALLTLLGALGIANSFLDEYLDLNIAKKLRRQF
# [6] = target: T2, Nuclear receptor subfamily 1 group I member 3 (Mus musculus, UniProt O35627); assay: (§1) Constitutive androstane receptor indirect activator
# T2 sequence (O35627 whole entry): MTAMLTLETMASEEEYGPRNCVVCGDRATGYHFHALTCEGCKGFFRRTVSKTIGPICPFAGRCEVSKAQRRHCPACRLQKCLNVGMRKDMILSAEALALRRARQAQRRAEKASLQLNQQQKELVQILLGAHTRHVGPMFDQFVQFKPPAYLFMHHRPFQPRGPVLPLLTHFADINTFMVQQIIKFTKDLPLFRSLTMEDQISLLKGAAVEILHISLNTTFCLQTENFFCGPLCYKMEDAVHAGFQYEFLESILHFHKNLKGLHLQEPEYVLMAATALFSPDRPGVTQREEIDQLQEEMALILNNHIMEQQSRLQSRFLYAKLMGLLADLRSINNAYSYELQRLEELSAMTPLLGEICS
# [7] = target: T3, Nuclear receptor subfamily 1 group I member 3 (Homo sapiens, UniProt Q14994); assay: as §1
# T3 sequence (Q14994 whole entry): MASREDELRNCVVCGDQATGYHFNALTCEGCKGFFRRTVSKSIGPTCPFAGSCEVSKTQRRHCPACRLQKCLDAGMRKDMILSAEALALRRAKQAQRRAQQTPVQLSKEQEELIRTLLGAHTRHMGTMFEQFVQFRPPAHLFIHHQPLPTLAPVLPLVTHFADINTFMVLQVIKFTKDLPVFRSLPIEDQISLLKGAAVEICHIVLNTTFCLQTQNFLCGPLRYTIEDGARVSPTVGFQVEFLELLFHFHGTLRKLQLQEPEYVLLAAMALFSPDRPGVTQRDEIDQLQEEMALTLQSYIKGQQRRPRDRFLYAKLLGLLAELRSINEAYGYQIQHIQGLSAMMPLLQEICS
# Cytochrome P450 2B6 = target: T4, Cytochrome P450 2B6 (Homo sapiens, UniProt P20813); assay: Clinically relevant inducers of human liver microsomal P450 enzymes, isoform CYP2B6; conditions: microsomes
# T4 sequence (P20813 whole entry): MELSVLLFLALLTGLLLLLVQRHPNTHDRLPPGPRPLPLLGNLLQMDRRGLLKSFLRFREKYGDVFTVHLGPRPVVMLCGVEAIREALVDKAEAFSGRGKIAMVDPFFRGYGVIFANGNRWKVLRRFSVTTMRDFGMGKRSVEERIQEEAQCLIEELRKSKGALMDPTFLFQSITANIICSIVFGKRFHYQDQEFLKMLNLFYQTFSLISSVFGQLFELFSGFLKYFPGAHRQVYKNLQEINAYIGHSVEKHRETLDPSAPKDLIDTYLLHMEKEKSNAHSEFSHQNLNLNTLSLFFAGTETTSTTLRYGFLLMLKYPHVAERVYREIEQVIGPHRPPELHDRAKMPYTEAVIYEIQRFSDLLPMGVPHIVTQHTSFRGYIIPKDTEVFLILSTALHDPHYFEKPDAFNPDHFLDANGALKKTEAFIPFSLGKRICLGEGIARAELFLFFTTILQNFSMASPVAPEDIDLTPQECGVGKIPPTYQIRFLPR
# Cytochrome P450 2C9 = Cytochrome P450 2C9 (Homo sapiens, UniProt P11712); assay: Clinically relevant inducers of human liver microsomal P450 enzymes, isoform CYP2C9; conditions: microsomes
# Sequence of Cytochrome P450 2C9 (P11712 whole entry, canonical isoform): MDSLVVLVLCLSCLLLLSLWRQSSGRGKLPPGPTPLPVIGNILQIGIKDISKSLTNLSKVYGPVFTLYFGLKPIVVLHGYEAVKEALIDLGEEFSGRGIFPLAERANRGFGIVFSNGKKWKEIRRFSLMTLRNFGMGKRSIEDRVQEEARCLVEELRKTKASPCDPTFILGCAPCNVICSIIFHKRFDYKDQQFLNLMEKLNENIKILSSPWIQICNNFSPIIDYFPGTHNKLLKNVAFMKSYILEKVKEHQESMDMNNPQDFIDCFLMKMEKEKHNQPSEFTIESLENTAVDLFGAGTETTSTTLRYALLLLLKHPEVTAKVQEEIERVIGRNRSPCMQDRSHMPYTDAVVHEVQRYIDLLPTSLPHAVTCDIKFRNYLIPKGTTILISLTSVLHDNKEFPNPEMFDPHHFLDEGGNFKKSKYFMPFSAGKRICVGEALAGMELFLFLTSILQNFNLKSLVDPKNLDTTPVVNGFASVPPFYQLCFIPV
# Cytochrome P450 2C19 = Cytochrome P450 2C19 (Homo sapiens, UniProt P33261); assay: Clinically relevant inducers of human liver microsomal P450 enzymes, isoform CYP2C19; conditions: microsomes
# Sequence of Cytochrome P450 2C19 (P33261 whole entry, canonical isoform): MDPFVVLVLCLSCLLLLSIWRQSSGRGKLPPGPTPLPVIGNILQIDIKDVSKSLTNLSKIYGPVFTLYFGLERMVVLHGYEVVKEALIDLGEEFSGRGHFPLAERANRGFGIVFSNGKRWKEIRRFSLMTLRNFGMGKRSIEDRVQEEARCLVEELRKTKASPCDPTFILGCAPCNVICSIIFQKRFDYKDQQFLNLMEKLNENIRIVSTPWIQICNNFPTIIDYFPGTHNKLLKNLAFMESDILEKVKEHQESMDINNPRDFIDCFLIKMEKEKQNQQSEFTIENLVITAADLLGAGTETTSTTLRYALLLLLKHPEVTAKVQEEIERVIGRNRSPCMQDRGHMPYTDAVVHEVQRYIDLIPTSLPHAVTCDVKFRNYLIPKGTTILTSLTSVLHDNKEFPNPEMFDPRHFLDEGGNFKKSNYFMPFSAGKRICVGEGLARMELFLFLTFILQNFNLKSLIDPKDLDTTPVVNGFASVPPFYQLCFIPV
# Cytochrome P450 2C8 = target: T5, Cytochrome P450 2C8 (Homo sapiens, UniProt P10632); assay: Clinically relevant inducers of human liver microsomal P450 enzymes, isoform CYP2C8; conditions: microsomes
# T5 sequence (P10632 whole entry): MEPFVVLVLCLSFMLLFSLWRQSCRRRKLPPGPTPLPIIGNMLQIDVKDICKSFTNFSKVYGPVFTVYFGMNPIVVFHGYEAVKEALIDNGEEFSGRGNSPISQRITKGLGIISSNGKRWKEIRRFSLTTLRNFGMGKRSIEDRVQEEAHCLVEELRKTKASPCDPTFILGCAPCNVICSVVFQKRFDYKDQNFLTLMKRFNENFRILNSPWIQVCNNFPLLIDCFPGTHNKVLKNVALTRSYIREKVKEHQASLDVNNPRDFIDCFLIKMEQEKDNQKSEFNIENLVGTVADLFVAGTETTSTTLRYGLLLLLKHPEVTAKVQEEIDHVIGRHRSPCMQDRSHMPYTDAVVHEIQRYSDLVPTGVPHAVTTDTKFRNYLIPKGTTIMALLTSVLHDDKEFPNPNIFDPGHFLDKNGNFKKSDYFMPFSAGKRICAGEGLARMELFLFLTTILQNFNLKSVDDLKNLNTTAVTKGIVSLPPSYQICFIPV
# Sequence of Glutathione S-transferase Mu 3 (P21266 whole entry): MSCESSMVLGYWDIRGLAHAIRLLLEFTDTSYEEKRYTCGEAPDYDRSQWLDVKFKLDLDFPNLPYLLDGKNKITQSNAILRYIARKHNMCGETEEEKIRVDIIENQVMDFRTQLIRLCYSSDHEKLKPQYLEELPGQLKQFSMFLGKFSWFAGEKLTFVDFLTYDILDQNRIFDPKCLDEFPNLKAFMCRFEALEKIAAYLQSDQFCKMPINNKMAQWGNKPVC
# Sequence of Prostaglandin E synthase (O14684 whole entry): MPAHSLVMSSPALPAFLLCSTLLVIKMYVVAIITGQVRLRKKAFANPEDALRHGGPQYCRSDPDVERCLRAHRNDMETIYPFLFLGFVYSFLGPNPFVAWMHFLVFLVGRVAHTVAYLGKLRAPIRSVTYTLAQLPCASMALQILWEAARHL
smiles,measurement,setting,value
CCCCC[C@H](O)/C=C/[C@H]1C2CC(OO2)[C@@H]1C/C=C\CCCC(=O)O (stereo partly drawn),Activity,Prostaglandin E synthase,Substrate
same,Activity,[1],Substrate
same,Activity,[2],Substrate
same,Activity,[3],Substrate
CCCCC/C=C\C\C=C/C=C/C=C/[C@@H]1O[C@H]1CCCC(=O)O [LEUKOTRIENE A4],Activity,Leukotriene C4 synthase,Substrate
same,Activity,[4],Substrate
same,Activity,[5],Substrate
CCC1(c2ccccc2)C(=O)NC(=O)NC1=O [PHENOBARBITAL],Activity,[6],indirect activator
same,Activity,[7],indirect activator
same,Activity,Cytochrome P450 2B6,Inducer
same,Activity,Cytochrome P450 2C9,Inducer
same,Activity,Cytochrome P450 2C19,Inducer
same,Activity,Cytochrome P450 2C8,Inducer
